Experimental findings from US7625897B2, “Non-nucleoside reverse transcriptase inhibitors” (Roche Palo Alto LLC, priority 2005, dated 2009) are described below.

For orientation: IC50 means the concentration that inhibits the measured activity by half. Broadly, the EC50 is the concentration at which the effect is half-maximal. By melting point is commonly meant the temperature, or range, at which the solid turns liquid.

Like-named read-outs stand apart in the source and are kept apart here.

The target of one data set is HIV-1 RT (Human immunodeficiency virus type 1 group M subtype B, UniProt P03366). The data set can be described thus: HIV Reverse Transcriptase Assay: Inhibitor IC50 determination. In kind it is biochemical. The protocol:
HIV Reverse Transcriptase Assay: Inhibitor IC50 determination
HIV-1 RT assay was carried out in 96-well Millipore MultiScreen MADVNOB50 plates using purified recombinant enzyme and a poly(rA)/oligo(dT)16 template-primer in a total volume of 50 μL. The assay constituents were 50 mM Tris/HCl, 50 mM NaCl, 1 mM EDTA, 6 mM MgCl2, 5 μM dTTP, 0.15 μCi [^3H] dTTP, 5 μg/ml poly (rA) pre annealed to 2.5 μg/ml oligo (dT)16 and a range of inhibitor concentrations in a final concentration of 10% DMSO. Reactions were initiated by adding 4 nM HIV-1 RT and after incubation at 37° C. for 30 min, they were stopped by the addition of 50 μl ice cold 20% TCA and allowed to precipitate at 4° C. for 30 min. The precipitates were collected by applying vacuum to the plate and sequentially washing with 3×200 μl of 10% TCA and 2×200 μl 70% ethanol. Finally, the plates were dried and radioactivity counted in a Packard TopCounter after the addition of 25 μl scintillation fluid per well. IC50's were calculated by plotting % inhibition versus log10 inhibitor concentrations.

The next data set relates to HIV. The data set can be described thus: Anti-viral Assay (method of Pauwels et al.). As to conditions: Human immunodeficiency virus 1; TABLE 3. In kind it is cell-based. As for the experimental part: Anti-viral assays were carried out by the method described by R. E. Pauwels et al. J Virol. Methods 1988 20(4):309-322.
[1] abbreviates: TABLE 3, read-out: RT inhibition IC50.
[2] abbreviates: TABLE I, purified recombinant enzyme, poly(rA)/oligo(dT)16 template-primer, read-out: HIV-RT IC50 RT.

In turn, `C[C@H]1NC(Cc2ccc(Cl)c(Oc3cc(C#N)cc(C#N)c3)c2F)=NNC1=O` [Compound I-5, 5-[6-Chloro-2-fluoro-3-((R)-5-methyl-6-oxo-1,4,5,6-tetrahydro-[1,2,4]triazin-3-ylmethyl)-phenoxy]-isophthalonitrile] displayed a melting point of 81.5 to 100 °C. The IC50 at HIV-1 RT (setting [1]) worked out at 32 nM. Also, the IC50 on HIV-1 RT (setting [2]) is 31.8 nM. Further, the EC50 with HIV came out at 12.2 nM.

`C[C@H]1NC(Cc2ccc(Cl)c(Oc3cc(Cl)cc(C#N)c3)c2F)=NNC1=O` [Compound I-15, 3-Chloro-5-[6-chloro-2-fluoro-3-((R)-5-methyl-6-oxo-1,4,5,6-tetrahydro-[1,2,4]triazin-3-ylmethyl)-phenoxy]-benzonitrile] gave a melting point of 158.6 to 159.9 °C. Moreover, the IC50 at HIV-1 RT (setting [1]) stood at 11 nM. Also, the IC50 on HIV-1 RT (setting [2]) is 11.1 nM. In the data set with HIV, this compound returned an EC50 of 8.3 nM.

With `CC1(C)OC(Cc2ccc(Cl)c(Oc3cccc(C#N)c3)c2)=NNC1=O` [Compound I-13, 3-[2-Chloro-5-(6,6-dimethyl-5-oxo-5,6-dihydro-4H-[1,3,4]oxadiazin-2-ylmethyl)-phenoxy]-benzonitrile], the melting point lay in the range of 94.1 to 95.3 °C. In addition, the IC50 on HIV-1 RT (setting [2]) was 9490 nM.
